In assay [1] the test system is Streptococcus sp. group D 2041. The class given is cell-based. The note with it: agar dilution. For orientation: Agar dilution tests growth on a series of plates holding different concentrations.
Assay [2] relates to Staphylococcus epidermidis 222. The class given is cell-based. The note with it: agar dilution.
For the next assay, the system named is Klebsiella pneumonia X26. The class given is cell-based. The note with it: agar dilution.
Assay [3] has as its system Streptococcus pyogenes C203. The class given is cell-based. The note with it: agar dilution.
The subject of the next assay is Klebsiella pneumonia X68. The class given is cell-based. The note with it: agar dilution.
The subject of assay [4] is Staphylococcus aureus V41. The note with it: agar dilution.
For assay [5], the system named is Streptococcus pneumoniae Park 1. The class given is cell-based. The note with it: agar dilution.
The test system of assay [6] is Haemophilus influenzae 76. The class given is cell-based. The note with it: agar dilution.
Assay [7] relates to Staphylococcus aureus NRRL B313. The note with it: agar dilution.
For assay [8], the system named is Staphylococcus epidermidis EP11. It counts as cell-based. The note with it: agar dilution.
In assay [9] the test system is Streptococcus faecium ATCC 9790. The class given is cell-based. The note with it: agar dilution.
Assay [10] relates to Staphylococcus aureus X400. The note with it: agar dilution.
In the next assay the test system is Escherichia coli TEM. The class given is cell-based. The note with it: agar dilution.
Assay [11] concerns Haemophilus influenzae C.L. The class given is cell-based. The note with it: agar dilution.
The next assay has as its system Klebsiella pneumonia KAE. The class given is cell-based. The note with it: agar dilution.
The test system of a further assay is Escherichia coli EC14. It counts as cell-based. The note with it: agar dilution.
The next assay deals with Escherichia coli N10. The class given is cell-based. The note with it: agar dilution.
Assay [12] deals with Peptostreptococcus anaerobius 1428. The class given is cell-based. The note with it: agar dilution, read after 24 hrs.
In assay [13] the test system is Clostridium perfringens 81. The class given is cell-based. The note with it: agar dilution, read after 24 hrs.
Assay [14] has as its system Bacteroides corrodens 1874. It counts as cell-based. The note with it: agar dilution, read after 24 hrs.
Assay [15] relates to Peptococcus asaccharolyticus 1302. The class given is cell-based. The note with it: agar dilution, read after 24 hrs.
The test system of assay [16] is Bacteroides thetaiotaomicron 1438. The class given is cell-based. The note with it: agar dilution, read after 24 hrs.
Assay [17] deals with Peptostreptococcus intermedius 1264. It counts as cell-based. The note with it: agar dilution, read after 24 hrs.
The test system of a further assay is Peptococcus prevoti 1281. The note with it: agar dilution, read after 24 hrs.
For assay [18], the system named is Fusobacterium necrophorum 6054A. The class given is cell-based. The note with it: agar dilution, read after 24 hrs.
In assay [19] the test system is Eubacterium aerofaciens 1235. The class given is cell-based. The note with it: agar dilution, read after 24 hrs.
Assay [20] concerns Fusobacterium symbiosum 1470. The class given is cell-based. The note with it: agar dilution, read after 24 hrs.
For assay [21], the system named is Bacteroides melaninogenicus 1856/28. It counts as cell-based. The note with it: agar dilution, read after 24 hrs.
For assay [22], the system named is Bacteroides vulgatis 1211. It counts as cell-based. The note with it: agar dilution, read after 24 hrs.
In assay [23] the test system is Bacteroides fragilis 1877. The class given is cell-based. The note with it: agar dilution, read after 24 hrs.
For assay [24], the system named is Propionibacterium acnes 79. It counts as cell-based. The note with it: agar dilution, read after 24 hrs.
The test system of assay [25] is Bacteroides fragilis 1936B. The class given is cell-based. The note with it: agar dilution, read after 24 hrs.
For a further assay, the system named is Streptococcus pneumoniae. Kind of assay: experimental bacterial infection in mice, ED50. It counts as in vivo. The note with it: subcutaneous, two doses. As for the experimental part:
(§1) The formula 1 compounds have also shown in vivo antimicrobial activity against experimental bacterial infections. When two doses of test compound were administered to mice in experimental infections, the activity observed was measured as an ED50 value [effective dose in mg/kg to protect 50% of the test animals: see Warren Wick, et al., J. Bacteriol. 81, 233-235 (1961)].

The next assay concerns Staphylococcus aureus. Kind of assay: experimental bacterial infection in mice, ED50. The class given is in vivo. The note with it: subcutaneous, two doses. As for the experimental part: as §1
Another assay concerns Streptococcus pyogenes. Kind of assay: experimental bacterial infection in mice, ED50. It counts as in vivo. The note with it: subcutaneous, two doses. As for the experimental part:
as §1

For assay [26], the system named is Bacteroides melaninogenicus 2736. It counts as cell-based. The note with it: agar dilution, read after 24 hrs.
In assay [27] the test system is Clostridium septicum 1128. It counts as cell-based. The note with it: agar dilution, read after 24 hrs. As for the experimental part: (§2) | read after 24hrs. incubation.
Assay [28] deals with Clostridium difficile 2994. The class given is cell-based. The note with it: agar dilution, read after 24 hrs. As for the experimental part:
as §2

The subject of another assay is Bacteroides fragilis 111. The class given is cell-based. The note with it: agar dilution, read after 24 hrs.

≈ marks a conversion by molar mass, not a printed value.

As to `CC(C)C[C@H](C(=O)N[C@H]1C(=O)N[C@@H](CC(N)=O)C(=O)N[C@H]2C(=O)N[C@H]3C(=O)N[C@H](C(=O)N[C@H](C(=O)[O-])c4cc(O)cc(O)c4-c4cc3ccc4O)[C@H](O)c3ccc(c(Cl)c3)Oc3cc2cc(c3O[C@@H]2O[C@H](CO)[C@@H](O)[C@H](O)[C@H]2O)Oc2ccc(cc2Cl)[C@H]1O)[N+](C)(C)C` [Compound 5, M43C], the MIC was 8 µg/mL (≈ 6 µM) in assay [1]; 4 µg/mL (≈ 3 µM) in assay [2]; over 64 µg/mL in the assay on Klebsiella pneumonia X26; 1 µg/mL (≈ 0.75 µM) in [3]; over 64 µg/mL with Klebsiella pneumonia X68; 2 µg/mL (≈ 1.5 µM) in assay [4]. Moreover, the MIC in [5] stood at 1 µg/mL (≈ 0.75 µM); in assay [6], 64 µg/mL (≈ 48 µM); in assay [7], 2 µg/mL (≈ 1.5 µM); in assay [8] it was 8 µg/mL (≈ 6 µM); in [9], 4 µg/mL (≈ 3 µM); in assay [10], 2 µg/mL (≈ 1.5 µM). Moreover, the MIC (against Escherichia coli TEM; in assay [11]; against Klebsiella pneumonia KAE; in the assay on Escherichia coli EC14; against Escherichia coli N10) was over 64 µg/mL each time.

As for `CC(C)C[C@@H](N)C(=O)N[C@H]1C(=O)N[C@@H](CC(N)=O)C(=O)N[C@H]2C(=O)N[C@H]3C(=O)N[C@H](C(=O)N[C@H](C(=O)O)c4cc(O)cc(O)c4-c4cc3ccc4O)[C@H](O)c3ccc(c(Cl)c3)Oc3cc2cc(c3O)Oc2ccc(cc2Cl)[C@H]1O` [Compound 9, Agluco-A51568A], the MIC in assay [1] was 2 µg/mL (≈ 1.77 µM); in [2], 1 µg/mL (≈ 0.885 µM); against Klebsiella pneumonia X26 it was over 128 µg/mL; in assay [3], 1 µg/mL (≈ 0.885 µM); in assay [12] it was at least 0.5 µg/mL; with Klebsiella pneumonia X68 it was over 128 µg/mL. Besides, the MIC in assay [4] was 0.5 µg/mL (≈ 0.443 µM); in assay [5], 0.5 µg/mL (≈ 0.443 µM); in assay [13], 1 µg/mL (≈ 0.885 µM); in assay [6] it was 128 µg/mL (≈ 113 µM); in assay [14], 64 µg/mL (≈ 56.6 µM); in assay [7], 0.5 µg/mL (≈ 0.443 µM). For the same molecule, the MIC was 1 µg/mL (≈ 0.885 µM) in assay [8]; 1 µg/mL (≈ 0.885 µM) in assay [15]; 64 µg/mL (≈ 56.6 µM) in [16]; 1 µg/mL (≈ 0.885 µM) in assay [17]; 1 µg/mL (≈ 0.885 µM) with Peptococcus prevoti 1281; 1 µg/mL (≈ 0.885 µM) in [9]. The MIC was at least 0.5 µg/mL in assay [18]; 1 µg/mL (≈ 0.885 µM) in [19]; 0.5 µg/mL (≈ 0.443 µM) in [10]; 4 µg/mL (≈ 3.54 µM) in assay [20]; over 128 µg/mL in [21]; over 128 µg/mL with Escherichia coli TEM. Besides, the MIC in assay [22] was 1 µg/mL (≈ 0.885 µM); in assay [23], 64 µg/mL (≈ 56.6 µM); in assay [24], 1 µg/mL (≈ 0.885 µM); in [25], 64 µg/mL (≈ 56.6 µM); in assay [11], 128 µg/mL (≈ 113 µM); against Klebsiella pneumonia KAE, over 128 µg/mL. Besides, the MIC in assay [26] was 4 µg/mL (≈ 3.54 µM); in assay [27], 1 µg/mL (≈ 0.885 µM); in assay [28] it was 1 µg/mL (≈ 0.885 µM); in the assay on Escherichia coli EC14, over 128 µg/mL; against Bacteroides fragilis 111, 64 µg/mL (≈ 56.6 µM); with Escherichia coli N10, over 128 µg/mL. For the same molecule, the ED50 came out at 1.8 mg/kg/2 in the assay with Streptococcus pneumoniae, 0.74 mg/kg/2 with Staphylococcus aureus and 2.0 mg/kg/2 in the assay on Streptococcus pyogenes.

In the case of `CC(C)C[C@H](C(=O)N[C@H]1C(=O)N[C@@H](CC(N)=O)C(=O)N[C@H]2C(=O)N[C@H]3C(=O)N[C@H](C(=O)N[C@H](C(=O)[O-])c4cc(O)cc(O)c4-c4cc3ccc4O)[C@H](O)c3ccc(c(Cl)c3)Oc3cc2cc(c3O)Oc2ccc(cc2Cl)[C@H]1O)[N+](C)(C)C` [Compound 11, Agluco-M43A], the MIC is 4 µg/mL (≈ 3.41 µM) in assay [1]; 2 µg/mL (≈ 1.71 µM) in assay [2]; over 128 µg/mL against Klebsiella pneumonia X26; 2 µg/mL (≈ 1.71 µM) in assay [3]; over 128 µg/mL with Klebsiella pneumonia X68; 2 µg/mL (≈ 1.71 µM) in assay [4]. Besides, the MIC is 1 µg/mL (≈ 0.853 µM) in assay [5]; 32 µg/mL (≈ 27.3 µM) in assay [6]; 2 µg/mL (≈ 1.71 µM) in [7]; 2 µg/mL (≈ 1.71 µM) in [8]; 2 µg/mL (≈ 1.71 µM) in [9]; 2 µg/mL (≈ 1.71 µM) in assay [10]. The MIC was over 128 µg/mL in the assay on Escherichia coli TEM; 128 µg/mL (≈ 109 µM) in assay [11]; over 128 µg/mL in the assay on Klebsiella pneumonia KAE; over 128 µg/mL in the assay with Escherichia coli EC14; over 128 µg/mL in the assay with Escherichia coli N10. Besides, the ED50 in the assay on Streptococcus pneumoniae amounted to 3.06 mg/kg/2; in the assay on Staphylococcus aureus, 3.06 mg/kg/2; in the assay with Streptococcus pyogenes it was 3.63 mg/kg/2.

Turning to `CC(C)C[C@@H](N)C(=O)N[C@H]1C(=O)N[C@@H](CC(N)=O)C(=O)N[C@H]2C(=O)N[C@H]3C(=O)N[C@H](C(=O)N[C@H](C(=O)O)c4cc(O)cc(O)c4-c4cc3ccc4O)[C@H](O)c3ccc(c(Cl)c3)Oc3cc2cc(c3O[C@@H]2O[C@H](CO)[C@@H](O)[C@H](O)[C@H]2O)Oc2ccc(cc2Cl)[C@H]1O` [Compound 12, Desvancosamine-A51568A], the MIC is 8 µg/mL (≈ 6.19 µM) in [1]; 4 µg/mL (≈ 3.1 µM) in assay [2]; over 128 µg/mL against Klebsiella pneumonia X26; 2 µg/mL (≈ 1.55 µM) in assay [3]; over 128 µg/mL with Klebsiella pneumonia X68; 2 µg/mL (≈ 1.55 µM) in assay [4]. For the same molecule, the MIC in assay [5] was 1 µg/mL (≈ 0.774 µM); in [6], over 128 µg/mL; in assay [7], 2 µg/mL (≈ 1.55 µM); in [8], 4 µg/mL (≈ 3.1 µM); in [9], 4 µg/mL (≈ 3.1 µM); in assay [10] it was 2 µg/mL (≈ 1.55 µM). Further, the MIC in the assay on Escherichia coli TEM is 128 µg/mL (≈ 99.1 µM); in [11], over 128 µg/mL; with Klebsiella pneumonia KAE it was over 128 µg/mL; against Escherichia coli EC14, over 128 µg/mL; with Escherichia coli N10 it was over 128 µg/mL.

On to `CN[C@H](CC(C)C)C(=O)N[C@H]1C(=O)N[C@@H](CC(N)=O)C(=O)N[C@H]2C(=O)N[C@H]3C(=O)N[C@H](C(=O)N[C@H](C(=O)O)c4cc(O)cc(O)c4-c4cc3ccc4O)[C@H](O)c3ccc(c(Cl)c3)Oc3cc2cc(c3O[C@@H]2O[C@H](CO)[C@@H](O)[C@H](O)[C@H]2O)Oc2ccc(cc2Cl)[C@H]1O` [Compound 13, Desvancosamine-Vancomycin], for which the MIC is 32 µg/mL (≈ 24.5 µM) in assay [1]; 8 µg/mL (≈ 6.13 µM) in assay [2]; over 128 µg/mL in the assay on Klebsiella pneumonia X26; 4 µg/mL (≈ 3.06 µM) in assay [3]; over 128 µg/mL against Klebsiella pneumonia X68; 8 µg/mL (≈ 6.13 µM) in [4]. For the same molecule, the MIC in assay [5] worked out at 4 µg/mL (≈ 3.06 µM); in assay [6], 128 µg/mL (≈ 98 µM); in [7], 8 µg/mL (≈ 6.13 µM); in [8] it was 16 µg/mL (≈ 12.3 µM); in assay [9], 8 µg/mL (≈ 6.13 µM); in [10], 8 µg/mL (≈ 6.13 µM). Moreover, the MIC (with Escherichia coli TEM; in assay [11]; against Klebsiella pneumonia KAE; in the assay on Escherichia coli EC14; against Escherichia coli N10) was over 128 µg/mL each time.
